Where a name gives a salt, the structure may show the parent alone. Values belong to the molecule of their own block, whether it stands above or below them.
Assays:
[1] = tested on: Bx-PC3; experiment: Combination assay with sorafenib (MTT), Bx-PC3; assay type: cell-based, human;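 for increase of sorafenib cytotoxicity in combination: percent increase of sorafenib cell viability inhibition versus sorafenib alone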
Procedure: (§1) Suitable vehicle controls were also included.
(§2) The type of interaction (synergistic, additive, or antagonistic) among sorafenib and test substances or positive controls was evaluated by measuring the reversal ratio value (RR), combination index (CI), and isobolographic analysis (IB), as previously described.

[2] = tested on: Bx-PC3 cells; experiment: Wound healing assay (cell migration); assay type: cell-based, human; details: for wound area / cell migration after 72 h: substance alone, sesquiterpenes 10 µg/mL, verapamil/MK571 1 µg/mL; for increase of wound area: substance in combination with sorafenib 10 µg/mL, reference and time not stated
Procedure: To evaluate the effect of caryophyllane sesquiterpenes, both alone and in combination with sorafenib, on the cell migration rate, the wound healing assay was performed. Bx-PC3 cells were seeded in 24-well plate at a density of 2.5 × 10^5 cells/well. After 24 h, the wound was created by scratching the well bottom with a 100 μL pipette tip, then the cells were treated under the scheduled conditions and images were captured at 0, 4, and 72 h using a Cytation 1 Cell Imaging Multi-Mode Reader. […] Results were expressed as wound area percentage with respect to that of the same well at zero time. The positive controls were also included.

[3] = tested on: MRP2; experiment: Immunofluorescence analysis in Bx-PC3 cells, MRP2; assay type: cell-based, human
Procedure: as §1
(§3) The analysis was performed according to previously published methods. Confluent cells were seeded in 24-well plates (2 × 10^4 cells/well), allowed to adhere overnight, then treated as described above. After treatment, cells were fixed in pure methanol and washed with 4% bovine serum albumin (BSA) and PBS + Tween 20 (PBS-T) for 1 h. […] The expression and localization of Pgp, MRP1, and MRP2 pumps into cells were analyzed by using a Cytation 1 Cell Imaging Multimode Reader (Biotech, USA).

[4] = tested on: HepG2; experiment: MTT cytotoxicity assay, substances alone, HepG2; assay type: cell-based, human; details: for IC50 higher than that of sorafenib / inhibition of cell viability: HepG2
Procedure: as §1
(§4) The effect of the treatments on cell viability was measured by the MTT assay as previously described. A higher than 30% reduction of cell viability was considered as a significant cytotoxic effect.

[5] = tested on: Mz-ChA-1; experiment: MTT cytotoxicity assay, substances alone, Mz-ChA-1; assay type: cell-based, human; details: for IC50: Homo sapiens, substance alone, 4 h exposure + 72 h recovery
Procedure: as §1, §4

[6] = tested on: noncancerous H69 cholangiocytes; experiment: Combination assay with sorafenib (MTT), tolerability in H69; assay type: cell-based, human
Procedure: as §1, §2

[7] = tested on: noncancerous H69 cholangiocytes; experiment: MTT cytotoxicity assay (tolerability), substances alone, H69; assay type: cell-based, human; details: for higher cytotoxicity in normal H69 cells than in cancerous Mz-ChA-1 cholangiocytes (IC50 comparison): H69 vs Mz-ChA-1; for CC50: Homo sapiens, H69 noncancerous cholangiocytes, substance alone, 4 h exposure + 72 h recovery, read-out: IC50 (CL)
Procedure: as §1, §4

[8] = tested on: Mz-ChA-1; experiment: Combination assay with sorafenib (MTT), Mz-ChA-1; assay type: cell-based, human;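 for increase of sorafenib cytotoxicity in combination: percent increase of sorafenib cell viability inhibition versus sorafenib alone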
Procedure: as §1, §2

[9] = tested on: phospho(Tyr705)-STAT3; experiment: Western blotting of STAT3 phosphorylation in Bx-PC3 cells; assay type: cell-based, human; details: for increase of STAT3 phosphorylation at tyrosine 705: substance alone, sorafenib and sesquiterpenes 10 μg/mL, verapamil/MK571 1 μg/mL, normalized to total STAT3; for reduction of phospho(Tyr705)-STAT3 with respect to sorafenib: substance in combination with sorafenib 10 μg/mL
Procedure: as §1
Confluent cells were seeded in 6-well plates (5 × 10^5 cells/well), treated as described above, then harvested by centrifugation and washed in PBS. After lysis with a suitable buffer, the Western blotting analysis was carried out, according to previously published methods. […] The levels of phospho(Tyr705)-STAT3 were normalized against total STAT3 ones.

[10] = tested on: HepG2; experiment: Combination assay with sorafenib (MTT), HepG2; assay type: cell-based, human; details: for increase of sorafenib cytotoxicity in combination: verapamil/MK571 1 µg/mL or sesquiterpenes 10 µg/mL;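 for increase of sorafenib cytotoxicity in combination: percent increase of sorafenib cell viability inhibition versus sorafenib alone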
Procedure: as §1, §2

[11] = tested on: Bx-PC3; experiment: MTT cytotoxicity assay, substances alone, Bx-PC3; assay type: cell-based, human; details: for IC50: Homo sapiens, BXPC-3, substance alone, 4 h exposure + 72 h recovery
Procedure: as §1, §4

[12] = tested on: Pgp; experiment: Immunofluorescence analysis in Bx-PC3 cells, Pgp; assay type: cell-based, human; details: for effect on Pgp expression (immunofluorescence): substance alone, sorafenib and sesquiterpenes 10 µg/mL, verapamil 1 µg/mL
Procedure: as §1, §3

[13] = tested on: MRP1; experiment: RT-qPCR gene expression in Bx-PC3 cells, MRP1; assay type: cell-based, human
Text: as §1

[14] = tested on: MRP2; experiment: RT-qPCR gene expression in Bx-PC3 cells, MRP2
Procedure: (§5) Confluent cells were treated with the test substances, both alone or in combination with the anticancer drug, for 4 h, then washed and incubated for a further 72 h (Figure 1), according to previously published protocols [20]. […] Suitable vehicle controls were also included.
(§6) The results of mRNA abundance for the targeted genes in each sample were normalized on the basis of GAPDH (Bio-Rad, Hercules, CA, USA) mRNA. Data are expressed as 2^−ΔCt, calculated using the CFX Manager software (Bio-Rad).

[15] = tested on: MDR1; experiment: RT-qPCR gene expression in Bx-PC3 cells, MDR1; details: for increase of MDR1 gene expression with respect to control: substance alone, 4 h exposure + 72 h recovery
Procedure: as §5, §6

[16] = tested on: MRP1; experiment: Immunofluorescence analysis in Bx-PC3 cells, MRP1; assay type: cell-based, human
Procedure: as §1, §3

[17] = tested on: MRP1/2; experiment: ABC-mediated drug efflux assay, calcein-AM accumulation, HepG2 cells; assay type: cell-based, human; details: 2 h pre-treatment, sesquiterpenes 10 μg/mL, vs control
Procedure: (§7) Fluorescence was measured at excitation and emission wavelengths of 485 nm and 535 nm for both probes, using a Cytation 1 Cell Imaging Multimode Reader (Biotech, Santa Clara, CA, USA). Results were normalized to viable cells and expressed as percentage of the negative control.

[18] = tested on: MRP1/2; experiment: ABC-mediated drug efflux assay, calcein-AM accumulation, Mz-ChA-1 cells; assay type: cell-based, human; details: 2 h pre-treatment, sesquiterpenes 10 μg/mL, vs control
Procedure: as §7

[19] = set-up: method as in PMID 33081075; details: European Food Safety Authority; cited from earlier work
[20] = tested on: MRP1/2; experiment: ABC-mediated drug efflux assay, calcein-AM accumulation, Bx-PC3 cells; assay type: cell-based, human; details: 2 h pre-treatment, sesquiterpenes 10 μg/mL, MK571 1 μg/mL, vs control
Procedure: as §7

[21] = sorafenib 10 µg/mL, verapamil/MK571 1 µg/mL or sesquiterpenes 10 µg/mL
[22] = substance 10 µg/mL in combination with sorafenib 10 µg/mL
[23] = substance in combination with sorafenib, given for MRP1 and MRP2 together

reduction of sorafenib IC50 in the presence of the substance [1]: ~3.9 fold | reduction of sorafenib IC50 in the presence of the substance [10]: ~6 fold
SMILES: CN(C)C(=O)CCSC(SCCC(=O)O)c1cccc(/C=C/c2ccc3ccc(Cl)cc3n2)c1 (centres unmarked) [MK571, reference compound]
increase of sorafenib cytotoxicity in combination ([1]; sorafenib 1 µg/mL, verapamil/MK571 1 µg/mL or sesquiterpenes 10 µg/mL): ~10% | increase of sorafenib cytotoxicity in combination ([1]; sorafenib 10 µg/mL, verapamil/MK571 1 µg/mL): ~47% | wound area / cell migration after 72 h [2]: almost complete closure of wound area | increase of wound area [2]: approximately 3.7 fold | effect on MRP2 transporter expression (immunofluorescence) ([3]; substance alone): significantly lowered | IC50 higher than that of sorafenib [4]: comparable | inhibition of cell viability ([4]; 50 µg/mL): 50% | IC50 ([5]; Mz-ChA-1): 94.6 µg/mL | IC50 higher than that of sorafenib ([5]; Mz-ChA-1): 1.2 fold | inhibition of cell viability ([5]; Mz-ChA-1, 50 µg/mL): approximately 15% | inhibition of cell viability ([5]; Mz-ChA-1, 250 µg/mL): ~90% | reduction of cell viability with respect to sorafenib alone ([6]; combination with 1 µg/mL and 10 µg/mL sorafenib, verapamil/MK571 1 µg/mL): ~15% | higher cytotoxicity in normal H69 cells than in cancerous Mz-ChA-1 cholangiocytes (IC50 comparison) [7]: ~2.9 fold | CC50 [7]: 32.6 µg/mL | reduction of sorafenib IC50 in the presence of the substance [8]: 1.7 fold | increase of sorafenib cytotoxicity in combination ([8]; sorafenib 1 µg/mL, verapamil/MK571 1 µg/mL): 3% | increase of sorafenib cytotoxicity in combination [8, 21]: 20% | increase of STAT3 phosphorylation at tyrosine 705 [9]: 1.5 fold | reduction of phospho(Tyr705)-STAT3 with respect to sorafenib [9]: 3.7 fold | increase of sorafenib cytotoxicity in combination ([10]; sorafenib 1 µg/mL): ~23% | increase of sorafenib cytotoxicity in combination ([10]; sorafenib 10 µg/mL): ~40% | IC50 higher than that of sorafenib [11]: 2.5 fold | inhibition of cell viability ([11]; 50 µg/mL): ~33% | inhibition of cell viability ([11]; 250 µg/mL): ~90% | IC50 [11]: 78.5 µg/mL

SMILES: CNC(=O)c1cc(Oc2ccc(NC(=O)Nc3ccc(Cl)c(C(F)(F)F)c3)cc2)ccn1 [Sorafenib, sorafenib tosylate]
change of wound area after 4 h ([2]; sorafenib 10 µg/mL alone): slight reduction | increase of wound area at 72 h ([2]; sorafenib 10 µg/mL alone): 1.2 fold | effect on MRP2 transporter expression (immunofluorescence) ([3]; substance alone): significantly lowered | inhibition of cell viability ([4]; 10 µg/mL): approximately 10% | inhibition of cell viability ([4]; 500 µg/mL): 95% | IC50 higher with respect to Bx-PC3 cells ([4]; HepG2 vs Bx-PC3): approximately 1.5 fold | IC50 ([5]; Mz-ChA-1): 76.1 µg/mL | inhibition of cell viability ([5]; Mz-ChA-1, 50 µg/mL): about 30% | inhibition of cell viability ([5]; Mz-ChA-1, 250 µg/mL): about 90% | IC50 higher with respect to Bx-PC3 cells ([5]; Mz-ChA-1 vs Bx-PC3): ~2.4 fold | effect on Pgp expression (immunofluorescence) [12]: slight increase | decrease of MRP1 gene expression ([13]; substance alone): ~2 fold | decrease of MRP2 gene expression ([14]; substance alone): ~2 fold | increase of MDR1 gene expression with respect to control [15]: 3.6 fold | higher cytotoxicity in normal H69 cells than in cancerous Mz-ChA-1 cholangiocytes (IC50 comparison) [7]: approximately 1.5 fold | CC50 [7]: 50.3 µg/mL | increase of STAT3 phosphorylation at tyrosine 705 [9]: 4.6 fold | inhibition of cell viability ([11]; 50 µg/mL): 70% | IC50 [11]: 31 µg/mL | cell viability at the higher tested concentrations ([11]; concentrations higher than 50 µg/mL): almost completely inhibited | lowering of MRP1 expression compared to control (immunofluorescence) ([16]; substance alone, 10 µg/mL): 1.2 fold

SMILES: COc1ccc(CCN(C)CCCC(C#N)(c2ccc(OC)c(OC)c2)C(C)C)cc1OC (centres unmarked) [Verapamil, verapamil hydrochloride, reference compound]
reduction of sorafenib IC50 in the presence of the substance [1]: ~2 fold | increase of wound area [2]: lowered the anti-migration effect of sorafenib | reduction of sorafenib IC50 in the presence of the substance [8]: 1.5 fold | increase of STAT3 phosphorylation at tyrosine 705 [9]: 1.1 fold | reduction of phospho(Tyr705)-STAT3 with respect to sorafenib [9]: lower reduction | reduction of sorafenib IC50 in the presence of the substance [10]: approximately 3 fold

reduction of sorafenib IC50 in the presence of the substance [1]: 5 fold | reduction of sorafenib IC50 in the presence of the substance [10]: approximately 2.9 fold
SMILES: C=C1CC/C=C(\C)CC[C@@H]2[C@@H]1CC2(C)C [β-Caryophyllene, β-caryophyllene]
combination index (CI) with sorafenib ([1]; CI lower than 1 = synergistic): 0.46 | increase of sorafenib cytotoxicity in combination ([1]; sesquiterpenes 10 µg/mL, sorafenib concentration not stated (Figure 3F)): 56% | wound area / cell migration after 72 h [2]: almost complete closure of wound area | increase of wound area [2]: ~4.1 fold | increase of calcein-AM accumulation [17]: 1.2 fold | reduction of MRP2 expression with respect to sorafenib [3, 22]: 1.3 fold | increase of MRP2 expression (immunofluorescence) ([3]; substance alone, 10 µg/mL): 1.4 fold | IC50 higher than that of sorafenib [4]: 1.6 fold | IC50 ([5]; Mz-ChA-1): 62.7 µg/mL | IC50 lower with respect to sorafenib ([5]; Mz-ChA-1): approximately 1.2 fold | higher cytotoxicity with respect to β-caryophyllene oxide ([5]; Mz-ChA-1): approximately 1.5 fold | inhibition of cell viability ([5]; Mz-ChA-1, 50 µg/mL): 35% | inhibition of cell viability ([5]; Mz-ChA-1, 250 µg/mL): 96% | effect on Pgp expression (immunofluorescence) [12]: did not affect | reduction of Pgp expression compared to control ([12]; substance in combination with sorafenib 10 μg/mL): ~1.9 fold | reduction of MRP1 gene expression [13, 23]: 4 fold | reduction of MRP2 gene expression [14, 23]: 4 fold | increase of MDR1 gene expression with respect to control [15]: 2.7 fold | downregulation of MDR1 gene with respect to sorafenib alone ([15]; substance in combination with sorafenib): 1.9 fold | increase of calcein-AM accumulation [18]: 1.3 fold | considered safe up to (approved as flavoring) [19]: ≤ 222 mg/kg/die | effect on sorafenib cytotoxicity in noncancerous cells ([6]; sesquiterpene 10 μg/mL combined with sorafenib (protective effect at sorafenib 10 μg/mL)): slight protective effects | CC50 [7]: 67 µg/mL | reduction of sorafenib IC50 in the presence of the substance [8]: approximately 1.7 fold | combination index (CI) with sorafenib ([8]; CI lower than 1 = synergistic): 0.74 | increase of sorafenib cytotoxicity in combination [8, 21]: 19% | increase of sorafenib cytotoxicity in combination ([8]; sorafenib 50 µg/mL, sesquiterpenes 10 µg/mL): 17% | increase of calcein-AM accumulation [20]: 1.9 fold | increase of STAT3 phosphorylation at tyrosine 705 [9]: approximately 3 fold | reduction of phospho(Tyr705)-STAT3 with respect to sorafenib [9]: 2.1 fold | combination index (CI) with sorafenib ([10]; CI lower than 1 = synergistic): 0.47 | increase of sorafenib cytotoxicity in combination ([10]; sorafenib 1 µg/mL): 5% | increase of sorafenib cytotoxicity in combination ([10]; sorafenib 10 µg/mL): approximately 33% | IC50 higher than that of sorafenib [11]: comparable | higher cytotoxicity with respect to β-caryophyllene oxide [11]: ~1.8 fold | inhibition of cell viability ([11]; 50 µg/mL): 70% | inhibition of cell viability ([11]; 250 µg/mL): 95% | IC50 [11]: 36.3 µg/mL | reduction of MRP1 expression with respect to sorafenib [16, 22]: 1.8 fold

— article PMC9231089, “Sorafenib Chemosensitization by Caryophyllane Sesquiterpenes in Liver, Biliary, and Pancreatic Cancer Cells: The Role of STAT3/ABC Transporter Axis” (Pharmaceutics, 2022)
